The nature of series [1]: Cytotoxicity against mouse RAW264.7 cells assessed as reduction in cell viability incubated for 24 hrs by CCK-8 assay. The series is classed as toxicity, cell-based.
Series [2] in a line: Cytotoxicity against human HEK293T cells assessed as reduction in cell viability incubated for 24 hrs by CCK-8 assay. The format is toxicity, cell-based, HEK-293T.
Series [3] is described as follows: Cytotoxicity against human HepG2 cells assessed as reduction in cell viability incubated for 24 hrs by CCK-8 assay. The format is toxicity, cell-based.

Each structure is given as a SMILES string. Values after ≈ are worked out from the molar mass of the structure shown.

Turning to `CC[C@H](C)[C@@H]1NC(=O)[C@H](Cc2ccccc2)NC(=O)[C@H](Cc2c[nH]c3ccccc23)NC(=O)[C@@H]([C@@H](C)O)NC(=O)[C@@H](Cc2ccc(O)cc2)NC1=O`, the IC50 at 24 h in series [1] came out at 17.2 µg/mL (≈ 24.2 µM); in series [2] it was 6 µg/mL (≈ 8.44 µM); in series [3], 29.6 µg/mL (≈ 41.6 µM).

As to `CC[C@H](C)[C@@H]1NC(=O)[C@H](Cc2ccccc2)NC(=O)[C@@H]2C[C@]3(O)c4ccccc4N[C@H]3N2C(=O)[C@H]([C@@H](C)O)NC(=O)[C@@H](Cc2ccc(O)cc2)NC1=O`, the figures for the half-inhibitory concentration (IC50) at 24 h in series [1], in series [2] and in series [3] were 182 µg/mL (≈ 251 µM), 148 µg/mL (≈ 203 µM) and 110 µg/mL (≈ 151 µM), respectively.

`CC(C)C[C@H]1NC(=O)[C@H](Cc2ccccc2)NC(=O)[C@H](Cc2c[nH]c3ccccc23)NC(=O)[C@@H](C(C)C)NC(=O)[C@H](C(C)C)NC(=O)[C@@H](C)NC1=O`: the IC50 at 24 h is 7.7 µg/mL (≈ 10.8 µM) in series [1], 150 µg/mL (≈ 210 µM) in series [2] and 125 µg/mL (≈ 174 µM) in series [3].

In the case of `COc1cc([C@@H]2c3cc4c(cc3[C@H](O)[C@H]3COC(=O)[C@H]23)OCO4)cc(OC)c1OC` [PODOFILOX], the results for the IC50 at 24 h in series [1], in series [2] and in series [3] were 61.3 µg/mL (≈ 148 µM), 20 µg/mL (≈ 48.3 µM) and 19.6 µg/mL (≈ 47.3 µM), respectively.

The record behind these values is ChEMBL document CHEMBL5360643, “Cyclic Peptides from the Opportunistic Pathogen Basidiobolus meristosporus” (J Nat Prod, 2023).
